Species: Rattus norvegicus
Experiment: Open TG-GATES - Regimen: Single
Type: toxicity, organism-based, Sprague-Dawley
Design: regimen Single, gender Male, age 6 weeks
Settings: in vivo, iv, route intravenous injection; for KIDNEY_L / KIDNEY_R / KIDNEY_TOTAL: tissue Kidney; for LIVER: tissue Liver
[1] = 1 mg/kg, 3 h, tissue Blood, dose level Low
[2] = 1 mg/kg, 3 h, tissue Plasma, dose level Low
[3] = 1 mg/kg, 6 h, tissue Blood, dose level Low
[4] = 1 mg/kg, 6 h, tissue Plasma, dose level Low
[5] = 1 mg/kg, 9 h, tissue Blood, dose level Low
[6] = 1 mg/kg, 9 h, tissue Plasma, dose level Low
[7] = 1 mg/kg, 24 h, tissue Blood, dose level Low
[8] = 1 mg/kg, 24 h, tissue Plasma, dose level Low

SMILES: COc1cccc2c1C(=O)c1c(O)c3c(c(O)c1C2=O)C[C@@](O)(C(=O)CO)C[C@@H]3O[C@H]1C[C@H](N)[C@H](O)[C@H](C)O1 [DOXORUBICIN]
- TERMINAL_BW (1 mg/kg, 3 h, dose level Low): 214.5 g
- Bas [1]: 0%
- Eos [1]: 1%
- Fbg [1]: 272 mg/dL
- Hb [1]: 13.4 g/dL
- Ht [1]: 38.5%
- Lym [1]: 77%
- MCH [1]: 21.8 pg
- MCHC [1]: 34.8%
- MCV [1]: 62.7 fL
- Mono [1]: 3%
- PT [1]: 16.4 s
- Plat [1]: 126.6 x10_4/uL
- RBC [1]: 614.2 x10_4/ul
- Ret [1]: 6.6%
- KIDNEY_L (1 mg/kg, 3 h, dose level Low): 0.9 g
- KIDNEY_R (1 mg/kg, 3 h, dose level Low): 0.9 g
- KIDNEY_TOTAL (1 mg/kg, 3 h, dose level Low): 1.9 g
- LIVER (1 mg/kg, 3 h, dose level Low): 9.4 g
- ALP [2]: 1599.2 IU/L
- ALT [2]: 44 IU/L
- AST [2]: 86.6 IU/L
- CRE [2]: 0.2 mg/dL
- DBIL [2]: 0.002 mg/dL
- GLC [2]: 185.4 mg/dL
- K [2]: 4.2 meq/L
- Na [2]: 142.4 meq/L
- RALB [2]: 2.9 g/dL
- TBIL [2]: 0.018 mg/dL
- TC [2]: 67.8 mg/dL
- TG [2]: 81 mg/dL
- TP [2]: 5.1 g/dL
- gamma-GTP [2]: 1.6 IU/L
- TERMINAL_BW (1 mg/kg, 6 h, dose level Low): 211.5 g
- Bas [3]: 0%
- Eos [3]: 0.4%
- Fbg [3]: 292.8 mg/dL
- Hb [3]: 13 g/dL
- Ht [3]: 38.2%
- Lym [3]: 79.4%
- MCH [3]: 21.9 pg
- MCHC [3]: 34.2%
- MCV [3]: 64 fL
- Mono [3]: 3.4%
- PT [3]: 15.9 s
- Plat [3]: 117.6 x10_4/uL
- RBC [3]: 598.8 x10_4/ul
- Ret [3]: 7%
- KIDNEY_L (1 mg/kg, 6 h, dose level Low): 1 g
- KIDNEY_R (1 mg/kg, 6 h, dose level Low): 1 g
- KIDNEY_TOTAL (1 mg/kg, 6 h, dose level Low): 1.9 g
- LIVER (1 mg/kg, 6 h, dose level Low): 8.9 g
- ALP [4]: 1586.4 IU/L
- ALT [4]: 43.4 IU/L
- AST [4]: 78.8 IU/L
- CRE [4]: 0.1 mg/dL
- DBIL [4]: 0 mg/dL
- GLC [4]: 172 mg/dL
- K [4]: 4.2 meq/L
- Na [4]: 140.6 meq/L
- RALB [4]: 2.9 g/dL
- TBIL [4]: 0.022 mg/dL
- TC [4]: 71.8 mg/dL
- TG [4]: 62.6 mg/dL
- TP [4]: 5.2 g/dL
- gamma-GTP [4]: 1.6 IU/L
- TERMINAL_BW (1 mg/kg, 9 h, dose level Low): 206.4 g
- Bas [5]: 0%
- Eos [5]: 1%
- Fbg [5]: 286.2 mg/dL
- Ht [5]: 38.8%
- Lym [5]: 74.8%
- MCH [5]: 21.3 pg
- MCHC [5]: 34.3%
- MCV [5]: 62.3 fL
- Mono [5]: 3%
- Neu [5]: 20.4%
- PT [5]: 16.4 s
- Plat [5]: 115.3 x10_4/uL
- RBC [5]: 624 x10_4/ul
- Ret [5]: 6.7%
- KIDNEY_L (1 mg/kg, 9 h, dose level Low): 0.9 g
- KIDNEY_R (1 mg/kg, 9 h, dose level Low): 0.9 g
- KIDNEY_TOTAL (1 mg/kg, 9 h, dose level Low): 1.8 g
- LIVER (1 mg/kg, 9 h, dose level Low): 8.1 g
- ALP [6]: 1211 IU/L
- AST [6]: 73.4 IU/L
- CRE [6]: 0.1 mg/dL
- DBIL [6]: 0 mg/dL
- GLC [6]: 180 mg/dL
- K [6]: 4.2 meq/L
- LDH [6]: 136.6 IU/L
- Na [6]: 140.2 meq/L
- RALB [6]: 3 g/dL
- TBIL [6]: 0.02 mg/dL
- TC [6]: 67.8 mg/dL
- TG [6]: 52.6 mg/dL
- TP [6]: 5.3 g/dL
- gamma-GTP [6]: 1.2 IU/L
- TERMINAL_BW (1 mg/kg, 24 h, dose level Low): 218.4 g
- Bas [7]: 0%
- Eos [7]: 0.8%
- Fbg [7]: 307.6 mg/dL
- Ht [7]: 37.2%
- Lym [7]: 83.2%
- MCH [7]: 21.6 pg
- MCHC [7]: 35.8%
- MCV [7]: 60.4 fL
- Mono [7]: 3.4%
- PT [7]: 16.7 s
- Plat [7]: 116 x10_4/uL
- RBC [7]: 617.4 x10_4/ul
- Ret [7]: 6.2%
- KIDNEY_L (1 mg/kg, 24 h, dose level Low): 0.9 g
- KIDNEY_R (1 mg/kg, 24 h, dose level Low): 1 g
- KIDNEY_TOTAL (1 mg/kg, 24 h, dose level Low): 1.9 g
- ALP [8]: 1436.4 IU/L
- AST [8]: 68.2 IU/L
- CRE [8]: 0.2 mg/dL
- DBIL [8]: 0.002 mg/dL
- GLC [8]: 191.8 mg/dL
- K [8]: 4.3 meq/L
- Na [8]: 142.4 meq/L
- RALB [8]: 3 g/dL
- TBIL [8]: 0.024 mg/dL
- TC [8]: 75.2 mg/dL
- TG [8]: 102.4 mg/dL
- TP [8]: 5.6 g/dL
- gamma-GTP [8]: 1.4 IU/L
- TERMINAL_BW (3 mg/kg, 3 h, dose level Middle): 212.4 g
- Bas (3 mg/kg, 3 h, tissue Blood, dose level Middle): 0%
